Consider four compounds from ChEMBL document CHEMBL1143698, “Conformation selectivity in the binding of diazepam and analogues to alpha1-acid glycoprotein” (Bioorg Med Chem, 2007).

In data set [1] the target is Alpha-1-acid glycoprotein 1 (Homo sapiens, UniProt P02763). As to the kind of experiment: Binding affinity to human alpha1-acid glycoprotein at 30 uM.
For data set [2], the species on record is Homo sapiens. As to the kind of experiment: Binding affinity to human alpha1-acid glycoprotein A variant at 30 uM.
Data set [3] is filed under the species Homo sapiens. As to the kind of experiment: Binding affinity to human alpha1-acid glycoprotein F1-S variant at 60 uM.
The species named for data set [4] is Homo sapiens. As to the kind of experiment: Binding affinity to human alpha1-acid glycoprotein F1-S variant at 30 uM.
The species entered for data set [5] is Homo sapiens. As to the kind of experiment: Binding affinity to human alpha1-acid glycoprotein A variant at 60 uM.
In a further data set the target is Albumin (Homo sapiens, UniProt P02768). Put plainly: Binding affinity to 30 uM human serum albumin at 30 uM.
Sequence of Albumin (P02768 whole entry): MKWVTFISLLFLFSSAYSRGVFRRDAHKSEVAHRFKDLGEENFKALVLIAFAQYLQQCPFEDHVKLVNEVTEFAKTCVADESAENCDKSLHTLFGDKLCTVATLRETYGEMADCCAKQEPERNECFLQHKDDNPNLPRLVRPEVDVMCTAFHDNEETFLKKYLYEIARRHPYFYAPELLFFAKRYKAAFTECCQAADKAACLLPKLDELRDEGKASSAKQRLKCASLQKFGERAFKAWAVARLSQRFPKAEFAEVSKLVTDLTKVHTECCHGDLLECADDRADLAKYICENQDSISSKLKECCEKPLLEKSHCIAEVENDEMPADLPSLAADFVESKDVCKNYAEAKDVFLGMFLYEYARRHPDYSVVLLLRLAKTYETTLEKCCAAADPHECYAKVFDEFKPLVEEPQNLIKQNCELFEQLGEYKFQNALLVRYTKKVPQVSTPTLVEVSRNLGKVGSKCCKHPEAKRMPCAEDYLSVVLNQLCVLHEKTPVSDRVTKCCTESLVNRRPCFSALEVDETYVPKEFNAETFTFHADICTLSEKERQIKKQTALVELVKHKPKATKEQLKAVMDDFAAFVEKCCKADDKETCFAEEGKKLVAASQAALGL

Sequence of Alpha-1-acid glycoprotein 1 (P02763 whole entry): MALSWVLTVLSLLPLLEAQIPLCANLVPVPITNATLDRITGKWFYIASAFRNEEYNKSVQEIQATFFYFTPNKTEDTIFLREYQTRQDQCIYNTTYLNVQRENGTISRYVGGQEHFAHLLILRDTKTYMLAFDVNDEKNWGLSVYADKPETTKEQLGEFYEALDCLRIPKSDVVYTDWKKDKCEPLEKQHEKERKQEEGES

For `CN1C(=O)CN=C(c2ccccc2)c2cc(Cl)ccc21` [DIAZEPAM], the Activity was 10 µM in data set [1]; 12 µM in the data set listed under Homo sapiens [2]; 12 µM in the data set filed under Homo sapiens [3]; 9 µM in the data set listed under Homo sapiens [4]; 17 µM in the data set filed under Homo sapiens [5].
For the compound `CN1C(=O)C(C)(C)N=C(c2ccccc2)c2cc(Cl)ccc21`, the Activity stood at 14 µM in data set [1] and 17 µM on Albumin.
`O=C1CN=C(c2ccccc2)c2cc(Cl)ccc2N1` [NORDAZEPAM]: the Activity in data set [1] was 9 µM; at Albumin, 17 µM.
For the compound `CC1(C)N=C(c2ccccc2)c2cc(Cl)ccc2NC1=O`, the Activity in data set [1] stood at 13 µM; in the data set listed under Homo sapiens [2] it was 12 µM; on Albumin it was 13 µM; in the data set listed under Homo sapiens [4] it was 9 µM.
